The results in this text go back to patent publication US20110275647A1, “PYRIMIDIN-4-(3H)-ONE DERIVATIVES” (MSD K.K., priority 2009, published 2011).

Each structure is given as a SMILES string.

T1 sequence (Q3SYC2 whole entry): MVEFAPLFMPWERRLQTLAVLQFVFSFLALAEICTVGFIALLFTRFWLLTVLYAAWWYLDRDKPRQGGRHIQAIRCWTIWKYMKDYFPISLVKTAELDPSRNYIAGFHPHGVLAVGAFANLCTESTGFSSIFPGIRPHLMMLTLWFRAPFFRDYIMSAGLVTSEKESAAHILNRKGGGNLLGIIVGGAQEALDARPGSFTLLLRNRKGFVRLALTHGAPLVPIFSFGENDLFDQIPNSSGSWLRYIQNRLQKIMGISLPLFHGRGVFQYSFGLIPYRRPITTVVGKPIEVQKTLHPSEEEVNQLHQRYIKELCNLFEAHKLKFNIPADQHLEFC

This test concerns the target T1, human MGAT2 (Homo sapiens, UniProt Q3SYC2).
T1 construct: made in house; host or cells: Pichia pastoris (vector pPICZA), membrane fraction
Nature of the test: MGAT2 inhibitory activity test. The note with it: MGAT2-expressed yeast membrane fraction, [14C]-oleoyl-CoA, 37° C. for 30 minutes. Type of test: biochemical. As to the method: Human MGAT2 genes were amplified by PCR using primers described below from human cDNA library (Clontech).
The amplified human MGAT2 genes were introduced into a yeast expression vector pPICZA (Invitrogen). The resultant expression plasmid was introduced into an yeast (Pichia pastris) by electroporation to produce a recombinant yeast. The recombinant yeast was cultured in the presence of 0.5% methanol for 72 hours, and the cells were crushed using glass beads in 10 mM Tris pH 7.5, 250 mM sucrose and 1 mM EDTA, followed by adjusting the membrane fraction by centrifugation to use the adjusted membrane fraction as an enzyme source.
To the reaction solution, 100 μl of 2-propanol/heptan (80:20) was added, the mixture was stirred well, followed by addition of 200 μl of heptane and further stirring the mixture. After centrifugation, the heptane layer was collected, 80 μl of ethanol/0.1N NaOH/H2O (50:5:45) was added, the mixture was thus stirred, followed by recentrifuging the mixture and collecting the heptane layer. After exsiccation of the resultant heptane layer, 100 μl of Microscint 0 (PerkinElmer) was added, and the radioactivity was measured with a liquid scintillation counter. The inhibitory activity was calculated from the following formula:
Inhibition rate=100−(radioactivity in case of addition of test compound−background)/(radioactivity in case of addition of no test compound−background)×100
wherein the background means the radioactivity in case of addition of no membrane fraction.
Regarding `O=c1c2c(nc(SCc3cccnc3)n1-c1ccccc1)CCN(c1nc3cc(C(F)(F)F)ccc3[nH]1)C2` [Example 3, 3-phenyl-2-[(pyridin-3-ylmethyl)thio]-6-[5-(trifluoromethyl)-1H-benzimidazol-2-yl]-5,6,7,8-tetrahydropyrido[4,3-d]pyrimidin-4(3H)-one], the IC50 (in general, the concentration needed to halve the response being measured) was determined as 56 nM.
Take `O=c1c2c(nc(SCc3ccccc3)n1-c1ccccc1)CCN(c1nc3cc(F)c(F)cc3[nH]1)C2` [Example 1, 6-(5,6-difluoro-1H-benzimidazol-2-yl)-3-phenyl-2-[(phenylmethyl)thio]-5,6,7,8-tetrahydropyrido[4,3-d]pyrimidin-4(3H)-one]: the IC50 is 817 nM.
In turn, `O=c1c2c(nc(SCc3ccnnc3)n1-c1ccccc1)CCN(c1nc3cc(C(F)(F)F)ccc3[nH]1)C2` [Example 4, 3-phenyl-2-[(pyridazin-4-ylmethyl)thio]-6-[5-(trifluoromethyl)-1H-benzimidazol-2-yl]-5,6,7,8-tetrahydropyrido[4,3-d]pyrimidin-4(3H)-one] yielded a half-maximal inhibitory concentration (IC50) of 114 nM.
Turning to `O=c1c2c(nc(SCc3ccccc3)n1-c1ccccc1)CCN(c1nc3cc(C(F)(F)F)ccc3[nH]1)C2` [Example 2, 6-(5-trifluoromethyl-1H-benzimidazol-2-yl)-3-phenyl-2-[(phenylmethyl)thio]-5,6,7,8-tetrahydropyrido[4,3-d]pyrimidin-4(3H)-one], it took 184 nM to reach half-maximal inhibition (IC50).
